In patent US11014876B2, “Polyamine sulfonamides and uses thereof” (University of Florida Research Foundation, Inc., priority 2015, dated 2021):
One block for each molecule: values may come before it.

Experiments:
[1] = tested on: KG-1 cell lines (human acute myeloid leukemia cells); experiment: AML cell (KG1) toxicity in AML-BMEC co-culture high-throughput screening assay; type: cell-based; settings: percent toxicity to KG-1 cells normalized to DMF
Procedure: FIG. 4. Schematic of high throughput screening assay. AML cells are cultured on bone marrow derived endothelial cells. After 24 hours of exposure to compound treatment, the AML cells and endothelial cells are analyzed for viability using flow cytometry for 7-AAD and annexin. The phase contrast micrographs in the bottom portion of this figure are representative of untreated control and drug treated conditions. In the control situation, spindle shaped endothelial cells appear under the round shaped AML cells. In the drug treated conditions, some compounds disrupt the spindle shaped endothelial cells and lead to their detachment and death. […] This is optimal because of the high toxicity to the malignant cells and low toxicity to stromal cells. Stromal cell viability represents safety.
(§1) The values given for percent toxicity to KG-1 cells is normalized to DMF. To compare the average AML-LSC toxicity vs. AML total toxicity, fresh human primary leukemia bone marrow mononuclear cells were treated with single doses of compounds, 2470-23 and 2470-51, at a single time point, and the killing of the AML leukemia stem cell (LSC) population versus the total AML cell population was quantified (FIG. 1). […] Next, AML-LSC toxicity versus T lymphocyte (Jurkat) toxicity was investigated. […] The single-dose treatments of 2470-23 and 2470-51 on normal healthy blood stem cells (sourced from fresh umbilical cord blood) versus AML LSC were also compared.

[2] = tested on: AML leukemia stem cell (LSC) population (CD34+CD38-CD123+); experiment: AML-LSC toxicity vs. AML total toxicity in fresh primary leukemia bone marrow mononuclear cells; type: cell-based, human; settings: for killing of AML LSC population versus total AML cell population: single dose, single time point, FIG. 1; for depletion of leukemia stem cells: single-dose treatment, FIG. 3
Procedure: FIG. 1. Comparing average AML-LSC toxicity vs. AML total toxicity. Fresh human primary leukemia bone marrow mononuclear cells were treated with single doses of compounds 2470-23 and 2470-51 at a single time point and the killing of the leukemia stem cell (LSC) population (defined as CD34+CD38-CD123+) was quantified versus the total AML cell population.
as §1

[3] = tested on: lymphoid (CD4+ Jurkat) versus myeloid (AML LSC) leukemia cells; experiment: AML-LSC toxicity vs. Jurkat toxicity; type: cell-based, human; settings: single-dose treatment; FIG. 2
Procedure: FIG. 2. Comparison of average AML-LSC toxicity vs. Jurkat toxicity.
as §1

[4] = tested on: normal healthy blood stem cells (fresh umbilical cord blood); experiment: Cord blood stem cell toxicity; type: cell-based, human; settings: single-dose treatment; FIG. 3
Procedure: FIG. 3. Comparison of average AML-LSC toxicity vs. cord blood stem cell toxicity. The single-dose treatments of 2470-23 and 2470-51 on normal healthy blood stem cells (sourced from fresh umbilical cord blood) and AML LSC were compared.
as §1

[5] = tested on: Primary human AML specimens (824, 872, 874); experiment: Viability of primary human AML specimens; type: cell-based; settings: 24 hours at 50 ng/mL; P<0.05; FIG. 5A
[6] = tested on: bone marrow cells from healthy adults; experiment: Viability of bone marrow cells from healthy adults; type: cell-based, human; settings: FIG. 5B
alpha-enolase = biological target: T1, alpha-enolase (Homo sapiens, UniProt P06733); experiment: Proteomic target identification (pronase protection, MS/MS); type: binding; settings: FIG. 7A
T1 construct: endogenous in cells; host or cells: KG-1, primary AML cells (816, LPP4), CD34+ cells; lysates
Procedure: FIG. 6. This schematic illustrates the proteomics work flow in identifying protein targets for the compounds. AML cells (KG-1, AML 1:816, AML 2:LPP4) and health hematopoietic stem/progenitor cells (CD34+) were lysed and then mixed with either vehicle or a compound (e.g., 2470-51). Following compound-protein binding, pronase was used to cleave the proteins. Where the compound bound to proteins, this site was protected from pronase digestion. The peptides were then analyzed via gel-based target identification and label-free mass spectrometry.

enolase [7] = experiment: Enolase protein expression in AML cells; type: cell-based, human; settings: FIG. 8A
Source text: (§2) FIG. 8A. Enolase protein expression. […] Thus, enolase correlates with malignant transformation, but is not changed by applying compounds of the present invention. FIG. 8B. Effect of compounds on enolase enzyme activity.

enolase [8] = biological target: enolase (Homo sapiens, UniProt P06733); experiment: Enolase enzyme activity; type: biochemical; settings: FIG. 8B
Source text: as §2

primary human AML cells = experiment: AML engraftment in NRGS mice injected with primary human AML cells; type: in vivo; settings: 20 mg/kg IP TIW, two-week treatment, FIG. 9
Procedure: FIG. 9. […] Immunocompromised NRGS (NOD.CG-Rag1^tm1MomIl2rg^tm1Wjl (CMV-IL3, CSF2, KITLG) 1Eav/J) mice were given sub-lethal irradiation (200 cGy), followed by tail vein injection of primary human AML cells. At the end of four week, the animals were randomized into two-week treatment groups: vehicle-treated (PBS treatment control), cytarabine-treated 100 mg/kg IP TIW (positive treatment control), and 2470-51 20 mg/kg IP TIW. Bone marrows were examined for the presence of human CD45+ (green) and DAPI).

Aqueous solubility = type: physicochemical; settings: aqueous medium
[9] = Microsomal stability, mouse; type: in vitro ADME; settings: microsomes, read-out: Microsomal Stability, t1/2
[10] = Microsomal stability, rat; type: in vitro ADME; settings: microsomes, read-out: Microsomal Stability, t1/2
[11] = Microsomal stability, human; type: in vitro ADME; settings: microsomes, read-out: Microsomal Stability, t1/2
Human plasma half-life = type: in vitro ADME
CYP450 2C9 = CYP450 2C9 (Homo sapiens, UniProt P11712); experiment: CYP450 inhibition 2C9; type: in vitro ADME
CYP450 2D6 = CYP450 2D6 (Homo sapiens, UniProt P10635); experiment: CYP450 inhibition 2D6; type: in vitro ADME
CYP450 3A4 = CYP450 3A4 (Homo sapiens, UniProt P08684); experiment: CYP450 inhibition 3A4; type: in vitro ADME
Plasma protein binding = type: in vitro ADME
PAMPA = type: in vitro ADME

Sequence of CYP450 3A4 (P08684 whole entry): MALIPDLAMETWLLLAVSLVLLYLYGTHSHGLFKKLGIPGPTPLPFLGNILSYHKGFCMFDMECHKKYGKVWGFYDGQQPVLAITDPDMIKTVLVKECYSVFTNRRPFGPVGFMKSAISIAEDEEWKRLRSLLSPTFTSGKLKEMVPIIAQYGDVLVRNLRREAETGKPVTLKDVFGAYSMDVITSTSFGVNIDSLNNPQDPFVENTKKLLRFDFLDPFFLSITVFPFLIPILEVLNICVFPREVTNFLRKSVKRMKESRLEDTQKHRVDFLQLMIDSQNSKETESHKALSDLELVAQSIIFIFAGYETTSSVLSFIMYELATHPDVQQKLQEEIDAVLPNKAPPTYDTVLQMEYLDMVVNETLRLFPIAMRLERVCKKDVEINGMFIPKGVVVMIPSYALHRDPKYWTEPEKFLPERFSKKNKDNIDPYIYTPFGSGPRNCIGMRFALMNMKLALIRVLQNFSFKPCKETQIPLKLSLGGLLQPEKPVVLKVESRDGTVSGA
Sequence of CYP450 2C9 (P11712 whole entry): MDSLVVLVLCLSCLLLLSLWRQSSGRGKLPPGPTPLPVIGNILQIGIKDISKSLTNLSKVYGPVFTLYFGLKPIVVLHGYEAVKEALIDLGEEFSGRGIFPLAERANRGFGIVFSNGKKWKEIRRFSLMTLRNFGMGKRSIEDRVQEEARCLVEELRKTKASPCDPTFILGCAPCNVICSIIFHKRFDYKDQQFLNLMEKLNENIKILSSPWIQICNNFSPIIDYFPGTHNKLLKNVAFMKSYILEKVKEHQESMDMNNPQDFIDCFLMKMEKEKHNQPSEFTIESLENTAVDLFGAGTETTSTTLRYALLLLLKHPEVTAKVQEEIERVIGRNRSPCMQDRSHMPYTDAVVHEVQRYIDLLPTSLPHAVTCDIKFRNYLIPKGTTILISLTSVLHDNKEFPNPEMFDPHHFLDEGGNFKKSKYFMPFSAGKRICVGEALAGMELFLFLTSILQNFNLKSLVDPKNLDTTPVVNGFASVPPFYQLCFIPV
T1 sequence (P06733 whole entry): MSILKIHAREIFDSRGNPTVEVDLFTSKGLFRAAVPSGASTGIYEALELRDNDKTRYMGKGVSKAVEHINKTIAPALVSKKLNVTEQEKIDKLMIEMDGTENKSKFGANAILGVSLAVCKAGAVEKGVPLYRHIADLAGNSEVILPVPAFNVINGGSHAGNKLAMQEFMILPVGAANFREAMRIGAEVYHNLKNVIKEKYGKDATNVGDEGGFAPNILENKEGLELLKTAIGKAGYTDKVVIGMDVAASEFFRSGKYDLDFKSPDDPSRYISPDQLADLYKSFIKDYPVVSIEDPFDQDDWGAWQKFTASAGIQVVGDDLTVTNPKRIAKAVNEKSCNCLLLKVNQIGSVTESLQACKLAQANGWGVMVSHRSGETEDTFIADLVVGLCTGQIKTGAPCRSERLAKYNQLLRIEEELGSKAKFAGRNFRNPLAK
Sequence of enolase (Homo sapiens, UniProt P06733) (P06733 whole entry): as above
Sequence of CYP450 2D6 (P10635 whole entry): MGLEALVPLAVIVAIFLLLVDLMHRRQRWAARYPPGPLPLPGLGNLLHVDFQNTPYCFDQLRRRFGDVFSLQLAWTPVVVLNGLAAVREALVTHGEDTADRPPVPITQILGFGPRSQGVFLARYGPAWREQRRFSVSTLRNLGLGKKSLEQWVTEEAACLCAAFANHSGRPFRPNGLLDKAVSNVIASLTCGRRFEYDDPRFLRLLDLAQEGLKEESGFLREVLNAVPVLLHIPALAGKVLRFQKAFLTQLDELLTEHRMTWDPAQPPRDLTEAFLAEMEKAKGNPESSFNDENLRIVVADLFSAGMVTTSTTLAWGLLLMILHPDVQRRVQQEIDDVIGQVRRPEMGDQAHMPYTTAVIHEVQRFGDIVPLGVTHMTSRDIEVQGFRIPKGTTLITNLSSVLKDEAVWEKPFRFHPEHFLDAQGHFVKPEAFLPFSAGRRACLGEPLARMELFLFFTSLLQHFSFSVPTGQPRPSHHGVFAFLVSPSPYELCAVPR

Structure (SMILES): CC(C)[C@H](CN)NC[C@H](C)NS(=O)(=O)c1ccc2ccccc2c1 [Compound 2470-49]
KG1 toxicity (50 μg/mL) [1]: 46.7%

Structure (SMILES): CC(C)[C@@H](CN)NC[C@@H](NS(=O)(=O)c1ccc(I)cc1)C(C)C [Compound 2470-23]
KG1 toxicity (50 μg/mL) [1]: 45.9%
killing of AML LSC population versus total AML cell population [2]: selectively kills the AML LSC fraction
depletion of leukemia stem cells [2]: do deplete the leukemia stem cells
AML-LSC toxicity vs. Jurkat toxicity [3]: specificity of these compounds for AML
depletion of healthy cord blood stem cells [4]: do not deplete healthy stem cells

binding to alpha-enolase peptide (MS/MS) (alpha-enolase): covalently bound
enolase enzymatic activity (enolase [8]): reduced in a dose-dependent fashion
solubility (Aqueous solubility): > 100 µM
half-life [9]: 8 min
half-life [10]: 9 min
half-life [11]: 33 min
half-life (Human plasma half-life): > 200 min
IC50 (CYP450 2C9): > 20 µM
IC50 (CYP450 2D6): 10.8 µM
IC50 (CYP450 3A4): > 20 µM
fraction unbound (Plasma protein binding): 0.195
PAMPA (PAMPA): 1 ×10⁻⁶ cm/s
PAMPA (grade in words) (PAMPA): (moderate)
Structure (SMILES): CC(C)[C@H](CN)NC[C@H](C)NS(=O)(=O)c1ccc(C(C)(C)C)cc1 [Compound 2470-51]
KG1 toxicity (50 μg/mL) [1]: 93.2%
killing of AML LSC population versus total AML cell population [2]: selectively kills the AML LSC fraction
depletion of leukemia stem cells [2]: do deplete the leukemia stem cells
AML-LSC toxicity vs. Jurkat toxicity [3]: specificity of these compounds for AML
depletion of healthy cord blood stem cells [4]: do not deplete healthy stem cells
AML cell viability compared to vehicle-treated controls [5]: significantly reduced AML cell viability
cell viability of healthy adult bone marrow cells compared to vehicle control [6]: did not reduce cell viability
enolase protein expression relative to vehicle (enolase [7]): did not change protein expression
AML engraftment (human CD45+ in bone marrow) (primary human AML cells): significantly reduced AML engraftment

Structure (SMILES): CC(C)C[C@H](CN)NC[C@H](CCO)NS(=O)(=O)c1ccc2ccccc2c1 [Compound 2470-40]
KG1 toxicity (50 μg/mL) [1]: 37.4%

Structure (SMILES): CC(C)[C@@H](CN)NC[C@H](C)NS(=O)(=O)c1ccc(C(C)(C)C)cc1 [Compound 2470-15]
KG1 toxicity (50 μg/mL) [1]: 38.4%
